pEC50: −log10 of the molar value.
molecular target: human PD-L1 (Homo sapiens (Human), UniProt Q9NZQ7); assay: T cell activation luciferase reporter cell culture system (T Cell Activation Assay); format: cell-based; conditions: luciferase reporter assay; PD-L1 aAPC/CHO-K1 cells with PD-1 effector Jurkat T cells
Sequence (Q9NZQ7 19-290): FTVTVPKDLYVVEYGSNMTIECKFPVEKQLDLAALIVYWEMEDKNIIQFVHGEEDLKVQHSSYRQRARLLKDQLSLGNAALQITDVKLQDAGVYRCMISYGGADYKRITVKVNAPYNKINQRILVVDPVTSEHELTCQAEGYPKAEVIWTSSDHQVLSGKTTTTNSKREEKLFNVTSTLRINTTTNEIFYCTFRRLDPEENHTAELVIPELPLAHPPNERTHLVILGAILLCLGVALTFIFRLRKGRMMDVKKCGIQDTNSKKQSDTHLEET

pEC50 | SMILES
7.36 | COc1cc(-c2nccc(-c3cccc(-c4ccc(CN5CC6(CCN(C(C)=O)C6)C5)c(OC)n4)c3Cl)c2Cl)ccc1CN1CCC(O)CC1 [Example 692, 1-(2-((6-(2-Chloro-3-(3-chloro-2-(4-((4-hydroxypiperidin-1-yl)methyl)-3-methoxyphenyl)pyridin-4-yl)phenyl)-2-methoxypyridin-3-yl)methyl)-2,6-diazaspiro[3.4]octan-6-yl)ethan-1-one]
6.01 | COc1nc(-c2cccc(-c3ccnc(-c4cnn(CC5CNC5)c4)c3Cl)c2Cl)ccc1CNC[C@@H]1CCC(=O)N1 [Cmpd 120, (S)-5-((((6-(3-(2-(1-(azetidin-3-ylmethyl)-1H-pyrazol-4-yl)-3-chloropyridin-4-yl)-2-chlorophenyl)-2-methoxypyridin-3-yl)methyl)amino)methyl)pyrrolidin-2-one]
6.98 | COc1cc(-c2nccc(-c3cccc(-c4ccc(CNC[C@@H]5CCC(=O)N5)c(OC)n4)c3Cl)c2Cl)ccc1CN1CC[C@H](C(=O)O)C1 [Cmpd 77, (S)-1-(4-(3-chloro-4-(2-chloro-3-(6-methoxy-5-(((((S)-5-oxopyrrolidin-2-yl)methyl)amino)methyl)pyridin-2-yl)phenyl)pyridin-2-yl)-2-methoxybenzyl)pyrrolidine-3-carboxylic acid]
7.14 | COc1cc(-c2nccc(-c3cccc(-c4ccc(CNC[C@@H]5CCC(=O)N5)c(OC)n4)c3Cl)c2Cl)cc2c1CN(CCC1CCNCC1)CC2 [Cmpd 64, (S)-5-((((6-(2-chloro-3-(3-chloro-2-(8-methoxy-2-(2-(piperidin-4-yl)ethyl)-1,2,3,4-tetrahydroisoquinolin-6-yl)pyridin-4-yl)phenyl)-2-methoxypyridin-3-yl)methyl)amino)methyl)pyrrolidin-2-one]
≤ 5.00 | COc1cc(-c2nccc(-c3cccc(-c4ccc(CN5CCC(NC(C)=O)CC5)c(OC)n4)c3C)c2Cl)ccc1CN1CCC(NC(C)=O)CC1 [Example 467, N-(1-((6-(3-(2-(4-((4-acetamidopiperidin-1-yl)methyl)-3-methoxyphenyl)-3-chloropyridin-4-yl)-2-methylphenyl)-2-methoxypyridin-3-yl)methyl)piperidin-4-yl)acetamide]
≤ 5.00 | CCOc1cc(-c2nccc(-c3cccc(-c4ccc(CNC5CCN(C(C)=O)CC5)c(OC)n4)c3Cl)c2Cl)cn2nc(CNC3CCN(C(C)=O)CC3)nc12 [Example 585, 1-(4-(((6-(4-(3-(5-(((1-Acetylpiperidin-4-yl)amino)methyl)-6-methoxypyridin-2-yl)-2-chlorophenyl)-3-chloropyridin-2-yl)-8-ethoxy-[1,2,4]triazolo[1,5-a]pyridin-2-yl)methyl)amino)piperidin-1-yl)ethan-1-one]
7.07 | COc1cc(-c2nccc(-c3cccc4c3CC[C@@H]4Oc3nc(OC)c(CNC[C@H](C)O)cc3C(F)(F)F)c2Cl)ccc1CNC[C@H](C)O [Example 270, (S)-1-(((6-(((S)-4-(3-Chloro-2-(4-((((S)-2-hydroxypropyl)amino)methyl)-3-methoxyphenyl)pyridin-4-yl)-2,3-dihydro-1H-inden-1-yl)oxy)-2-methoxy-5-(trifluoromethyl)pyridin-3-yl)methyl)amino)propan-2-ol]
7.40 | COc1cc(-c2nccc(-c3cccc(-c4ccc(CN5CC6(CNC(=O)C6)C5)c(OC)n4)c3Cl)c2C#N)ccc1CN1CC2(CNC(=O)C2)C1 [Example 433, 4-(2-Chloro-3-(6-methoxy-5-((7-oxo-2,6-diazaspiro[3.4]octan-2-yl)methyl)pyridin-2-yl)phenyl)-2-(3-methoxy-4-((7-oxo-2,6-diazaspiro[3.4]octan-2-yl)methyl)phenyl)nicotinonitrile]
7.58 | COc1cc(-c2nccc(-c3cccc(-c4ccc(CNC[C@H]5CCC(=O)N5)c(OC)n4)c3Cl)c2Cl)ccc1CNC[C@H]1CCC(=O)N1 [Example 354, (R)-5-((((6-(2-Chloro-3-(3-chloro-2-(3-methoxy-4-(((((R)-5-oxopyrrolidin-2-yl)methyl)amino)methyl)phenyl)pyridin-4-yl)phenyl)-2-methoxypyridin-3-yl)methyl)amino)methyl)pyrrolidin-2-one]
7.23 | COc1nc(-c2cccc(-c3ccnc(-c4cc(OC)c5nc(CN6CC(C)(O)C6)nn5c4)c3Cl)c2Cl)ccc1CNC[C@@H]1CCC(=O)N1 [Example 259, (S)-5-((((6-(2-Chloro-3-(3-chloro-2-(2-((3-hydroxy-3-methylazetidin-1-yl)methyl)-8-methoxy-[1,2,4]triazolo[1,5-a]pyridin-6-yl)pyridin-4-yl)phenyl)-2-methoxypyridin-3-yl)methyl)amino)methyl)pyrrolidin-2-one]
6.66 | COc1cc(-c2nccc(-c3cccc(NC(=O)c4ccc(CN5CC6(CNC(=O)C6)C5)cn4)c3Cl)c2Cl)ccc1CN1CC2(CNC(=O)C2)C1 [Example 672, N-(2-Chloro-3-(3-chloro-2-(3-methoxy-4-((7-oxo-2,6-diazaspiro[3.4]octan-2-yl)methyl)phenyl)pyridin-4-yl)phenyl)-5-((7-oxo-2,6-diazaspiro[3.4]octan-2-yl)methyl)picolinamide]
7.24 | COc1nc(-c2cccc(-c3ccnc(-c4ccc(CNC5CCOCC5)c(OC(F)F)c4)c3Cl)c2Cl)ccc1CNC1CCOCC1 [Example 618, N-((6-(2-Chloro-3-(3-chloro-2-(3-(difluoromethoxy)-4-(((tetrahydro-2H-pyran-4-yl)amino)methyl)phenyl)pyridin-4-yl)phenyl)-2-methoxypyridin-3-yl)methyl)tetrahydro-2H-pyran-4-amine]
7.43 | COc1cc(-c2nccc(-c3cccc(-c4ccc(CNC[C@@H]5CCC(=O)N5)c(OC)n4)c3Cl)c2Cl)ccc1CNC1CCS(=O)(=O)CC1 [Cmpd 126, (S)-5-((((6-(2-chloro-3-(3-chloro-2-(4-(((1,1-dioxidotetrahydro-2H-thiopyran-4-yl)amino)methyl)-3-methoxyphenyl)pyridin-4-yl)phenyl)-2-methoxypyridin-3-yl)methyl)amino)methyl)pyrrolidin-2-one]
7.39 | COc1cc(-c2nccc(-c3cccc(-c4ccc(CNC5CC(=O)NC(=O)C5)c(OC)n4)c3Cl)c2Cl)ccc1CNC1CC(=O)NC(=O)C1 [Example 359, 4-(((6-(2-Chloro-3-(3-chloro-2-(4-(((2,6-dioxopiperidin-4-yl)amino)methyl)-3-methoxyphenyl)pyridin-4-yl)phenyl)-2-methoxypyridin-3-yl)methyl)amino)piperidine-2,6-dione]
≤ 5.00 | COc1cc(-c2nccc(-c3cccc(-c4ccc(CN[C@H]5CC[C@H](O)CC5)c(OC)n4)c3C(F)(F)F)c2Cl)ccc1CN[C@H]1CC[C@H](O)CC1 [Example 588, (1r,4r)-4-(((6-(3-(3-Chloro-2-(4-((((1r,4r)-4-hydroxycyclohexyl)amino)methyl)-3-methoxyphenyl)pyridin-4-yl)-2-(trifluoromethyl)phenyl)-2-methoxypyridin-3-yl)methyl)amino)cyclohexan-1-ol]
6.90 | COC(=O)CN1CCc2cc(-c3nccc(-c4cccc(-c5ccc(CNC[C@@H]6CCC(=O)N6)c(OC)n5)c4Cl)c3Cl)cc(OC)c2C1 [Cmpd 150, methyl (S)-2-(6-(3-chloro-4-(2-chloro-3-(6-methoxy-5-((((5-oxopyrrolidin-2-yl)methyl)amino)methyl)pyridin-2-yl)phenyl)pyridin-2-yl)-8-methoxy-3,4-dihydroisoquinolin-2(1H)-yl)acetate]
6.65 | COc1cc(-c2ccnc(-c3cccc(-c4ccc(CNC5CCOCC5)c(OC)n4)c3Cl)c2Cl)ccc1CNC1CCOCC1 [Example 623, N-(4-(3-Chloro-2-(2-chloro-3-(6-methoxy-5-(((tetrahydro-2H-pyran-4-yl)amino)methyl)pyridin-2-yl)phenyl)pyridin-4-yl)-2-methoxybenzyl)tetrahydro-2H-pyran-4-amine]
≤ 5.00 | COc1cc(-c2nccc(-c3cccc4c3CCC[C@@H]4Nc3nc(OC)c(CNC4(C(=O)O)CC4)cc3C(F)(F)F)c2Cl)ccc1CNC[C@@H]1CCC(=O)N1 [Example 705, 1-(((6-(((S)-5-(3-Chloro-2-(3-methoxy-4-(((((S)-5-oxopyrrolidin-2-yl)methyl)amino)methyl)phenyl)pyridin-4-yl)-1,2,3,4-tetrahydronaphthalen-1-yl)amino)-2-methoxy-5-(trifluoromethyl)pyridin-3-yl)methyl)amino)cyclopropane-1-carboxylic acid]
7.35 | COc1cc(-c2nccc(-c3cccc(-c4ccc5c(CNC6CCS(=O)(=O)CC6)cn(C)c5n4)c3Cl)c2Cl)ccc1CNC[C@@H]1CCC(=O)N1 [Cmpd 60, (S)-5-(((4-(3-chloro-4-(2-chloro-3-(3-(((1,1-dioxidotetrahydro-2H-thiopyran-4-yl)amino)methyl)-1-methyl-1H-pyrrolo[2,3-b]pyridin-6-yl)phenyl)pyridin-2-yl)-2-methoxybenzyl)amino)methyl)pyrrolidin-2-one]
7.41 | CNCc1ccc(-c2nccc(-c3cccc(-c4ccc(CNC)c(OC)n4)c3Cl)c2C)cc1OC [Example 334, 1-(6-(2-Chloro-3-(2-(3-methoxy-4-((methylamino)methyl)phenyl)-3-methylpyridin-4-yl)phenyl)-2-methoxypyridin-3-yl)-N-methylmethanamine]
6.89 | COc1cc(-c2nccc(-c3cccc(-c4ccc5c(OC)c(CNCCO)cc(Cl)c5n4)c3Cl)c2Cl)ccc1CNC[C@@H]1CCC(=O)N1 [Example 238, (S)-5-(((4-(3-chloro-4-(2-chloro-3-(8-chloro-6-(((2-hydroxyethyl)amino)methyl)-5-methoxyquinolin-2-yl)phenyl)pyridin-2-yl)-2-methoxybenzyl)amino)methyl)pyrrolidin-2-one]
≤ 5.00 | COc1nc(-c2cccc(-c3ccnc(-c4ccc5c(c4)S(=O)(=O)CCN(C)C5)c3Cl)c2Cl)ccc1CNC[C@@H]1CCC(=O)N1 [Example 561, (S)-5-((((6-(2-Chloro-3-(3-chloro-2-(4-methyl-1,1-dioxido-2,3,4,5-tetrahydrobenzo[f][1,4]thiazepin-8-yl)pyridin-4-yl)phenyl)-2-methoxypyridin-3-yl)methyl)amino)methyl)pyrrolidin-2-one]

— patent US20240246964A1 (Arbutus Biopharma Corporation, priority 2021, published 2024)
